Columns and labels:
Format in all cases: cell-based
[1] = tested on: multi-resistant Staphylococcus aureus 171; assay: Paper diffusion method drug sensitivity test, MRSA-171; details: for inhibitory effect (in words): multi-drug resistant Staphylococcus aureus 171, summary of FIGS. 1-3 and Table 1; for Zone of inhibition: strain MRSA-171, drug sensitive paper 30 μg/tablet, 37° C., 24 h
Procedure: (§1) The antimicrobial efficacy was determined by a paper diffusion method drug sensitivity test.
(§2) Experimental strains: multi-resistant Staphylococcus aureus 171, multi-resistant Staphylococcus aureus 222, multi-resistant Staphylococcus aureus 596. The experimental strains were identified by Huashan Hospital Affiliated to Fudan University (Institute of Antibiotic of Fudan University).
(§3) Drug sensitive paper: The drug sensitive paper is a special drug sensitive paper with a diameter of 6.35 mm and a water absorption of 0.02 mL. The control drug was vancomycin (30 μg/tablet); the test drugs were pleuromutilin (phenylithio)acetic acid ester (30 μg/tablet).
(§4) Reagents: LB agar medium, LA broth medium, dichloromethane.
(§5) The experimental strains were inoculated in non-selective medium and placed in air at 37° C. for 24 h. Pick a single colony that grows well and inoculate it into broth medium, incubate at 35° C.±2° C. for 6 hours, and use LA broth medium to calibrate the concentration of the bacterial solution to 0.5 Mie turbidimetric tube (1.5×10^8 CFU/mL). A bacterial suspension is obtained.
as §5, with “([…]” for “(1.5×10^8”
(§6) LB dry powder was weighed, sterilized at 103.4 Kpa, 121.3° C. high-pressure steam for 15 min, and then placed it in a 40° C.-50° C. water bath. A sterile empty plate (inner diameter 9 cm) was placed on the surface of the ultra-clean table water table, and […] to the plate. The thickness of each plate was 3 mm to 4 mm. After the plate was cooled at room temperature, it was stored in the refrigerator at 2° C.-8° C. A sterile cotton swab was used to dip the bacterial solution and to evenly coat the surface of the LB plate 3 times. After inoculation of the bacterial suspension, the LB plate was dried at room temperature for 3 min to 5 min. Sterile forceps were used to closely attach the antibacterial drug paper to the dish. The dish was put upside down and placed in a 37° C. incubator for 24 h. The results were observed by measuring the diameter. Taking 0.5% DMSO solution as a negative control, the antibacterial activity is expressed by the diameter of the inhibition zone. The inhibition zone≥17 mm, sensitive; the inhibition zone of 15 mm-16 mm, intermediary; the inhibition zone≤14 mm, drug resistance.

[2] = tested on: multi-resistant Staphylococcus aureus 222; assay: Paper diffusion method drug sensitivity test, MRSA-222; details: for inhibitory effect (in words): multi-drug resistant Staphylococcus aureus 222, summary of FIGS. 1-3 and Table 1; for Zone of inhibition: strain MRSA-222, drug sensitive paper 30 μg/tablet, 37° C., 24 h
Procedure: as §1, §2, §3, §4, §5
as §5, with “([…]” for “(1.5×10^8”
as §6

[3] = tested on: multi-resistant Staphylococcus aureus 596; assay: Paper diffusion method drug sensitivity test, MRSA-596; details: for inhibitory effect (in words): multi-drug resistant Staphylococcus aureus 596, summary of FIGS. 1-3 and Table 1; for Zone of inhibition: strain MRSA-596, drug sensitive paper 30 μg/tablet, 37° C., 24 h
Procedure: as §1, §2, §3, §4, §5
as §5, with “([…]” for “(1.5×10^8”
as §6

| Structure (SMILES) | inhibitory effect (in words) [1] | inhibitory effect (in words) [2] | Zone of inhibition [2] [mm] | inhibitory effect (in words) [3] | Zone of inhibition [3] [mm] | Zone of inhibition [1] [mm] |
| --- | --- | --- | --- | --- | --- | --- |
| C=C[C@]1(C)CC(OC(=O)COC(=O)CSc2ccccc2)[C@]2(C)[C@H](C)CC[C@]3(CCC(=O)[C@H]32)[C@@H](C)[C@@H]1O (some centres unmarked) | strong inhibitory effects | strong inhibitory effects | 15 | strong inhibitory effects | 23 |  |
| O=C(O)CSc1ccccc1 [(Phenylithio)acetic acid] | no inhibitory effect | no inhibitory effect | 0 | no inhibitory effect | 0 | 0 |
| C=C[C@]1(C)C[C@@H](OC(=O)CO)[C@]2(C)[C@H](C)CC[C@]3(CCC(=O)[C@H]32)[C@@H](C)[C@@H]1O [Pleuromutilin] | no inhibitory effect | no inhibitory effect | 0 | no inhibitory effect | 0 | 0 |
| CN[C@H](CC(C)C)C(=O)N[C@H]1C(=O)N[C@@H](CC(N)=O)C(=O)N[C@H]2C(=O)N[C@H]3C(=O)N[C@H](C(=O)N[C@H](C(=O)O)c4cc(O)cc(O)c4-c4cc3ccc4O)[C@H](O)c3ccc(c(Cl)c3)Oc3cc2cc(c3O[C@@H]2O[C@H](CO)[C@@H](O)[C@H](O)[C@H]2O[C@H]2C[C@](C)(N)[C@H](O)[C@H](C)O2)Oc2ccc(cc2Cl)[C@H]1O [Vancomycin] |  |  | 18 |  | 21 | 17 |

— patent publication US11518740B2, “Pleuromutilin (phenylthio)acetic acid ester with anti-drug resistant bacteria activity and a method of preparing the same” (SHAANXI UNIVERSITY OF SCIENCE AND TECHNOLOGY, priority 2021, dated 2022)
